Data set [1] has as its system intracellular reactive oxygen species (ROS) levels in HIEC-6 cells. Kind of data set: DCFDA / H2DCFDA ROS assay in HIEC-6. The format is cell-based, Human. The following applies: HIEC-6, 0.2–50 µM. As to the method: The antioxidant DCFDA assay was conducted in HIEC-6 according to the protocol provided by the manufacturer Abcam (ab11385) and as mentioned by. Cells were seeded at a cell density of 2.5 × 10^4 cells/well in a clear bottom black 96-well microplate and allowed to adhere overnight at 37 °C in a CO2 incubator. Cells were washed and incubated in 100 µL of the diluted staining DCFDA solution, prepared by diluting 20 mM DCFDA in PBS, for 45 min at 37 °C in the dark Then, the DCFDA solution was removed and GA, 3,4,5-THBS, or 3,4,5-TMBS was added to the cells at different concentrations, in addition to doxorubicin, used as a positive control. Unstained cells were designated as blank. Fluorescence was recorded at Ex/Em = 485/535 nm.
The antioxidant activity of GA, 3,4,5-THBS, and 3,4,5-TMBS was assessed in HIEC-6 cells using the fluorescent probe 2′,7′-dichlorodihydrofluorescein diacetate (H2DCFDA). This assay quantifies the oxidation of H2DCFDA to 2′,7′-dichlorofluorescein (DCF), which serves as a marker for intracellular reactive oxygen species (ROS) levels. Cells were exposed to compound concentrations ranging from 0.2 to 50 µM, and the resulting fluorescence intensities were compared to a control group treated with H2DCFDA alone.

Data set [2] in a line: Oral bioavailability / pharmacokinetics in rats. It counts as in vivo, Sprague Dawley rats. The following applies: for Cmax / AUC(0-inf) / AUC(0-t) / CL/F / half-life / MRT inf / Tmax: male, Sprague Dawley; for Cmax / AUC(0-inf) / AUC(0-t) / CL/F / half-life / MRT inf / Tmax / Vz: rat serum; for Cmax: 100 mg/kg (table: 100 mg dose); for AUC(0-inf) / AUC(0-t) / CL/F / half-life / MRT inf / Tmax / Vz / Distribution volume at the terminal phase (Vz) relative to GA: 100 mg/kg; for MRT inf: n = 6, read-out: MRT0–∞; for Tmax / Distribution volume at the terminal phase (Vz) relative to GA: rat; for Tmax: serum, po. As to the method: Male Sprague Dawley rats, aged 7–9 weeks and weighing 220 ± 20 g on average, were used for bioavailability studies. The animals were housed in the Laboratory Animal Research Unit at the University of Petra Pharmaceutical Center under controlled conditions: a temperature of 23 ± 2 °C, humidity of 55–65%, and a 12 h light/dark cycle. Prior to the experiments, the rats underwent a 10-day acclimatization period with free access to standard food and water. All procedures complied with the University of Petra’s animal use guidelines, which adhere to the standards of the Federation of European Laboratory Animal Sciences Association (FELASA). The rats were divided into three groups (n = 6 per group) and administered suspensions of GA, 3,4,5-TMBS, or 3,4,5-THBS prepared in 5% carboxymethylcellulose. Each compound was administered orally at a dose of 100 mg/kg, based on previous studies. Blood samples were collected from the retro-orbital plexus at 0.5, 1, 2, 3, 4, 6, 10, and 24 h post-administration. The samples were centrifuged at 5000 rpm for 10 min, and the serum was mixed with acetonitrile in a 1:3 ratio. After a second centrifugation at 5000 rpm for 15 min, the supernatant was collected for high-performance liquid chromatography (HPLC) analysis. HPLC analysis was conducted using a Shimadzu Class VP series system equipped with an LC-10AT VP pump, an SIL-10AD VP autosampler, and an SCL-10AVP system (Shimadzu, Kyoto, Japan). A C18 column (25 cm × 4.6 mm, 5 μm) was used, with a photodiode array detector set to a wavelength range of 200–400 nm. The mobile phase for TMBS and THBS consisted of a 50:50 (v/v) mixture of deionized water and acetonitrile containing 0.1% trifluoroacetic acid, flowing at 1 mL/min. For GA, the mobile phase was a 70:30 mixture of methanol and a water/sulfuric acid solution (100:2), also at a flow rate of 1 mL/min. The retention times for THBS and TMBS were 2.39 and 3.47 min, respectively, while GA eluted at 2.4 min, all detected at 254 nm. Results were analyzed using Lab Solution Software LC (version 5.3) and represent the average of three measurements.

Data set [3] relates to HIEC-6 cells. In words: Cell viability CCK-8 assay in HIEC-6. It counts as cell-based, Human. The following applies: 24 h incubation. As to the method: Human intestinal epithelial cells (HIEC-6), originally obtained from the American Type Culture Collection (ATCC), were cultured in Opti-MEM™ I Reduced Serum Medium (Cat. No. 31985) supplemented with 20 mM HEPES, 10 mM L-glutamine, 10 ng/mL epidermal growth factor, and 4% fetal bovine serum (FBS) (New York, NY, USA). Cells were maintained in a humidified 5% CO2 incubator at 37 °C. Cell viability was assessed using the CCK-8 assay, a colorimetric method based on the reduction of water-soluble tetrazolium salts (WST-8) to a water-soluble formazan dye, with the resulting color intensity proportional to the number of viable cells. Briefly, cells were harvested at approximately 80% confluence, detached using trypsin-EDTA, and centrifuged at 1000 rpm for 5 min. The cell pellet was resuspended in fresh medium, and the density was adjusted to 1 × 10^6 cells/mL. A volume of 100 µL (1 × 10^5 cells/well) was seeded into a 96-well plate, with one well containing the medium only as background control. […] Subsequently, 10 µL of CCK-8 reagent was added to each well, and the plate was incubated for 4 h. Absorbance was measured at 450 nm using a microplate reader, results are expressed as the mean ± standard deviation (SD).

In the case of `NS(=O)(=O)c1cc(O)c(O)c(O)c1` [3,4,5-THBS, 3,4,5-trihydroxybenzenesulfonamide], the “ROS levels (fluorescence intensity) relative to control” value in data set [1] is “potent antioxidant activity”. In data set [2] (n = 6), this molecule gave a Cmax of 9560 ± 1900 ng/mL, an AUC(0-inf) of 24200 ± 7370 ng·h/mL, an exposure AUC(0-t) of 24200 ± 270 ng·h/mL and a CL/F of 73.2 mL/min/kg. In addition, in data set [2] (n = 6), the half-life was 2.1 ± 1.3 h, the Tmax came to 2 ± 0.1 h and the Vz is listed as 7.39 ± 2.16 (mg)/(μg/mL). Besides, in data set [2], the MRT inf amounted to 2.69 ± 0.36 h, the Tmax is 2 h and the “Distribution volume at the terminal phase (Vz) relative to GA” value is given as “approximately ten-fold lower than that of GA”. For the same molecule, half-maximal inhibition in data set [3] (IC50) required 35.5 ± 1.52 µM. This molecule came in with an IC50 in data set [3] (Homo sapiens, HIEC-6, 24 h) of 35 µM.

With `COc1cc(S(N)(=O)=O)cc(OC)c1OC` [3,4,5-TMBS, 3,4,5-trimethoxybenzenesulfonamide], the “ROS levels (fluorescence intensity) relative to control” value in data set [1] is listed as “potent antioxidant activity”. For the same molecule, in data set [2] (n = 6), the highest level (Cmax) was 25800 ± 6030 ng/mL, the AUC(0-inf) was found to be 386000 ± 43800 ng·h/mL, the AUC(0-t) came to 173000 ± 49300 ng·h/mL and the apparent clearance (CL/F) was 6.17 mL/min/kg. Besides, in data set [2] (n = 6), the half-life is 7.17 ± 1.62 h, the Tmax is 2.88 ± 1.31 h and the Vz is reported as 3.20 ± 0.55 (mg)/(μg/mL). In data set [2], the MRT inf worked out at 11.9 ± 0.61 h, the time of peak concentration (Tmax) was 2.87 h and the “Distribution volume at the terminal phase (Vz) relative to GA” value was “approximately ten-fold lower than that of GA”. In data set [3], this molecule came in with an IC50 of 33.4 ± 0.7 µM. This molecule also yielded an IC50 in data set [3] (Homo sapiens, HIEC-6, 24 h) of 33 µM.

Broadly, the Cmax is the highest concentration seen after dosing. As a reminder, the AUC(0-inf) is the area under the concentration-time curve extrapolated to infinity. Broadly, the AUC(0-t) is the area under the concentration-time curve up to a stated or last time point. The low end stands for low exposure, the high end for high exposure. As usually defined, the CL/F is the apparent clearance, not corrected for the fraction that reaches the circulation. Broadly, the half-life is how long it takes for the measured level to halve. A low value points to fast loss. One may read the Tmax as the time from dosing to the highest level. The term IC50 denotes the concentration needed to halve the response being measured. Read a low IC50 as higher potency.

The record behind these values is PMC12024234, “Antioxidant, Anti-Inflammatory, and Oral Bioavailability of Novel Sulfonamide Derivatives of Gallic Acid” (Antioxidants, 2025).
